Test [1] in a line: Selectivity ratio of IC50 for PDE1A to IC50 for PDE9.
Test [2] in a line: Inhibition of PDE9 by spectrophotometric analysis.
The nature of test [3]: Selectivity ratio of IC50 for PDE1B to IC50 for PDE9.

For 3 molecules, Ratio IC50 and IC50 results are on record in ChEMBL document CHEMBL2157927, “Imidazotriazinone compounds: patent highlight” (ACS Med Chem Lett, 2012).

Turning to `C[C@@H]1CN(Cc2cccc(F)c2)C[C@H]1c1nn2c(C3CCOCC3)ncc2c(=O)[nH]1`, the Ratio IC50 in test [1] and in test [3] was more than 1000 in each case. This molecule also displayed an IC50 in test [2] of less than 1000 nM. `C[C@@H]1CN(Cc2cnccn2)C[C@H]1c1nn2c(C3CCOCC3)ncc2c(=O)[nH]1`: in test [2], the IC50 was 1000 nM. In test [2], `C[C@@H]1CN(Cc2ncccn2)C[C@H]1c1nn2c(C3CCOCC3)ncc2c(=O)[nH]1` came in with a concentration for half-maximal inhibition (IC50) of more than 10000 nM.
